The source of these data is patent US10259810B2, “N-sulfonylated pyrazolo[3,4-b]pyridin-6-carboxamides and method of use” (AbbVie S.à.r.l., priority 2015, dated 2019).

Common to all, as to assay type: cell-based
The target in assay [1] is T1, ΔF508-CFTR (Homo sapiens, UniProt P13569, DEL508-508).
T1 construct: host or cells: CFBE41o-, doxycycline-inducible
The assay can be described thus: CFTR cell surface levels using HRP-tagged ΔF508-CFTR expressing CFBE cells, in the presence of a co-corrector. The conditions noted are these: HRP-tagged ΔF508-CFTR CFBE cells, in the presence of 3 μM co-corrector; for EC50: read-out: EC50. In a few lines: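 Chemiluminescent read-out of surface HRP (15 min, dark) after PBS washes. Activity is normalized as 100×(sample−DMSO)/(3 μM co-corrector alone−DMSO).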

Assay [2] deals with T2, CFTR ΔF508 (Homo sapiens, UniProt P13569, DEL508-508).
T2 construct: bronchial epithelial cells isolated from CF patients homozygous for the CFTR ΔF508 mutation; McGill University; Asterand; University of North Carolina hAEC-CF; host or cells: primary human bronchial epithelial cells from CF patients homozygous for ΔF508, differentiated at air-liquid interface
T2 sequence (P13569 with tags, fused parts or gaps DEL508-508): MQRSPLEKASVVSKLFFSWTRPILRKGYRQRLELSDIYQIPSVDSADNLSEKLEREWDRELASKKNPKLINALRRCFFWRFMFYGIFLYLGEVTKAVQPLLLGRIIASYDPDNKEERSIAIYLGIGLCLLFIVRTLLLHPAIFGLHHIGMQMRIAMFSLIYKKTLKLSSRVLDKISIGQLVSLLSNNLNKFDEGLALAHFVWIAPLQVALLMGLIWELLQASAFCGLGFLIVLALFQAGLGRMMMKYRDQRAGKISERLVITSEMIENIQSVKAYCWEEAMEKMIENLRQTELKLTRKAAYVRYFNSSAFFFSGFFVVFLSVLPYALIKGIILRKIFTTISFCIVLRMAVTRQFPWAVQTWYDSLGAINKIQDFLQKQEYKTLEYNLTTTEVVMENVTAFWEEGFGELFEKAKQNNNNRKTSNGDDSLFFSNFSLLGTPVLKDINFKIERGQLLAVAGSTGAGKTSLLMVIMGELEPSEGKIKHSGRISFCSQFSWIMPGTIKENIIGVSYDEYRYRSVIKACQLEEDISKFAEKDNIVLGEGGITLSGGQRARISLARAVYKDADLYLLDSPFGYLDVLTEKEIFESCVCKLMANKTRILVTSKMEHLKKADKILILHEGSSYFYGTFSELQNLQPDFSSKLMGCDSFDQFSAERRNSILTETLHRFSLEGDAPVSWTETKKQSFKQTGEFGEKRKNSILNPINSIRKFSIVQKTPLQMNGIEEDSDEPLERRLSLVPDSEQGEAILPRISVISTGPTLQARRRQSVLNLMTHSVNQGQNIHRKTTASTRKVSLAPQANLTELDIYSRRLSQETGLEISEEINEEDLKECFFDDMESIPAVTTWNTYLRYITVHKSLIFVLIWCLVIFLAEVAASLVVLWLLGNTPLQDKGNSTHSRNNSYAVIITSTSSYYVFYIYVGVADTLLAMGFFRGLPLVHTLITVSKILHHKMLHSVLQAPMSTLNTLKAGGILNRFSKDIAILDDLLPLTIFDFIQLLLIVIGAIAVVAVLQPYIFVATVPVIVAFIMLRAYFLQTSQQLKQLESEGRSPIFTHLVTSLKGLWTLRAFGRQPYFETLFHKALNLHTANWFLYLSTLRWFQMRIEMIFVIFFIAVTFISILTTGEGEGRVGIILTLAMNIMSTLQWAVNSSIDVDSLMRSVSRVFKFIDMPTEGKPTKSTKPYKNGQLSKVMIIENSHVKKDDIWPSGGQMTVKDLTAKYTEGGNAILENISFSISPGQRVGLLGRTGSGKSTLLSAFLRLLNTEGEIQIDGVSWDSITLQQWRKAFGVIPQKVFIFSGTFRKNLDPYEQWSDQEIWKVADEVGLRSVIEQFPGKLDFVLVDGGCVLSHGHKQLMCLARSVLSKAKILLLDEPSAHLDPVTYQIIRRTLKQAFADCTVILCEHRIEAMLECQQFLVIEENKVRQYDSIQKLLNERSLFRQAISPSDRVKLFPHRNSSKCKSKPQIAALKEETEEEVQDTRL
The experiment in a line: Chronic TECC assay, primary bronchial epithelial cells of CF patients homozygous for CFTR ΔF508 (corrector, co-corrector and potentiator). The conditions noted are these: for % Activity at 1 μM (Ieq*) / % Activity at 1 μM (AUC**): test compound at 1 μM; for % Activity at 3 μM (AUC**): test compound at 3 μM. The procedure:
Primary Bronchial Epithelial Cells Protocol
The TECC (Tranepithelial Clamp Circuit, EP-design) assay measures the functionality of the cystic fibrosis Transmembrane Conductance regulator (CFTR) by measuring the short circuit current (Isc) generated over the basolateral and apical membrane of lung epithelial cells. In TECC the transepithelial potential PD and transepithelial resistance (Rt) are measured in an open circuit and transformed to Ieq using Ohm's law. 24 Wells can be measured simultaneously allowing a higher throughput compared to Ussing chambers.
For this purpose, bronchial epithelial cells isolated from CF patients homozygous for the CFTR ΔF508 mutation (hAEC-CF, Epithelix, Geneva, Switzerland; McGill University, Montreal, Qc; Asterand, Detroit, Mich.; University of North Carolina, Chapel Hill, N.C.) are plated on type IV collagen-coated Transwell® supports (Costar).
For electrophysiological recording of the “chronic” experiments, the human airway epithelia are mounted in the TECC heating plate for electrophysiological measurement and kept at 37° C. The epithelia are bathed in a NaCl-Ringer solution (120 mM NaCl, 25 mM NaHCO3, 1.2 mM CaCl2, 1.2 mM MgCl2, 0.8 mM KH2PO4, 0.8 mM K2HPO4, pH 7.4, 5 mM glucose) on both the basolateral and apical sides. Test compounds (corrector, co-corrector, 4-[(2R,4R)-4-({[1-(2,2-difluoro-1,3-benzodioxol-5-yl)cyclopropyl]carbonyl}amino)-7-(difluoromethoxy)-3,4-dihydro-2H-chromen-2-yl]benzoic acid, and potentiator, N-(3-carbamoyl-5,5,7,7-tetramethyl-4,7-dihydro-5H-thieno[2,3-c]pyran-2-yl)-1H-pyrazole-5-carboxamide), are re-added to the recording solution prior to measurement. […] Apical amiloride is used to inhibit the endogenous ENaC currents while forskolin is applied on both apical and basolateral side to stimulate CFTR. Measurements are done during a 20 minute timeframe with recordings every 2 minutes. The increase in Ieq is used as a measure for the increased CFTR activity, EC50 values can be generated by measuring impact of different concentrations of compound on Ieq on primary cells, for this purpose each transwell is treated with a different compound concentration. […] Raw data were normalized to percentage activity values using the equation: 100×(Sample−Negative control)/(Positive control−Negative Control).

For assay [3], the target named is T1, ΔF508-CFTR. The assay can be described thus: CFTR cell surface levels using HRP-tagged ΔF508-CFTR expressing CFBE cells, intrinsic corrector capacity. Further details: % Activation: concentration or dose not given beside the values. The settings on record: HRP-tagged ΔF508-CFTR expressing CFBE41o- cells, compound alone (intrinsic corrector capacity), 20 hours at 33° C.; for EC50: read-out: EC50. An outline of the steps: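 Read-out: chemiluminescent HRP activity of ECL4-HRP-tagged ΔF508-CFTR at the cell surface, 15 min substrate in dark. Normalized as 100×(sample−DMSO)/(positive control−DMSO).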

Setting [4] is: chronic TECC, Ieq = calculations based on the maximum current, read-out: EC50 (nM) (Ieq*).
Where [5] appears, read: chronic TECC, Ieq = calculations based on the maximum current.
The mark [6] stands for this setting: chronic TECC, AUC = full area under the curve upon forskolin stimulation, read-out: EC50 (nM) (AUC**).
[7] abbreviates: chronic TECC, AUC = full area under the curve upon forskolin stimulation.

Where two headings read alike, the source gives them in different places.

T1 sequence (P13569 with tags, fused parts or gaps DEL508-508): as above

`CCS(=O)(=O)NC(=O)c1cc(-c2cnc(N(C)C)nc2)c2c(C(C)C)nn(-c3cccc(N4CCOCC4)c3)c2n1` [Compound 30, 4-[2-(dimethylamino)pyrimidin-5-yl]-N-(ethanesulfonyl)-1-[3-(morpholin-4-yl)phenyl]-3-(propan-2-yl)-1H-pyrazolo[3,4-b]pyridine-6-carboxamide]: the “% Activation” value amounted to 580.97% in assay [1] and 369.93% in assay [3]. In addition, the EC50 was 0.215 µM in assay [1], below 30 nM in assay [2] (setting [4]) and 0.436 µM in assay [3]. In addition, the “% Activity at 1 μM (Ieq*)” value in assay [2] (setting [5]) is on record as 450%.

As for `CC(C)c1nn(-c2ccccc2)c2nc(C(=O)NS(C)(=O)=O)cc(-c3ccc(N4CCOCC4)nc3)c12` [Compound 34, N-(methanesulfonyl)-4-[6-(morpholin-4-yl)pyridin-3-yl]-1-phenyl-3-(propan-2-yl)-1H-pyrazolo[3,4-b]pyridine-6-carboxamide], the “% Activation” value in assay [1] was 462.55%; in assay [3], 292.95%. Also, the EC50 in assay [1] is 0.356 µM; in assay [2] (setting [4]) it was below 30 nM; in assay [3] it was 0.611 µM. For the same compound, the “% Activity at 1 μM (Ieq*)” value in assay [2] (setting [5]) is 270%.

With `COCCN(C)c1ccc(-c2cc(C(=O)NS(C)(=O)=O)nc3c2c(C2CCC2)nn3-c2ccccc2)cn1` [Compound 63, 3-cyclobutyl-N-(methanesulfonyl)-4-{6-[(2-methoxyethyl)(methyl)amino]pyridin-3-yl}-1-phenyl-1H-pyrazolo[3,4-b]pyridine-6-carboxamide], in assay [2] (setting [4]), the concentration for a half-maximal effect (EC50) is 40 nM. The “% Activity at 1 μM (Ieq*)” value in assay [2] (setting [5]) is 325%.

With `CN(c1ccc(-c2cc(C(=O)NS(C)(=O)=O)nc3c2c(C2CCC2)nn3-c2ccccc2)cn1)C1CCOCC1` [Compound 74, 3-cyclobutyl-N-(methanesulfonyl)-4-{6-[methyl(oxan-4-yl)amino]pyridin-3-yl}-1-phenyl-1H-pyrazolo[3,4-b]pyridine-6-carboxamide], the “% Activation” value in assay [1] amounted to 424.82%; in assay [3], 253.38%. Besides, the EC50 was 0.357 µM in assay [1], below 30 nM in assay [2] (setting [4]) and 0.549 µM in assay [3]. Also, in assay [2] (setting [5]), the “% Activity at 1 μM (Ieq*)” value was 240%.

For `COCCN(C)c1ccc(-c2cc(C(=O)NS(C)(=O)=O)nc3c2c(C2CCC2)nn3-c2ccccc2)cc1` [Compound 75, 3-cyclobutyl-N-(methanesulfonyl)-4-{4-[(2-methoxyethyl)(methyl)amino]phenyl}-1-phenyl-1H-pyrazolo[3,4-b]pyridine-6-carboxamide], the EC50 in assay [2] (setting [4]) is 30 nM. Moreover, the “% Activity at 1 μM (Ieq*)” value in assay [2] (setting [5]) is 316%.

With `CC(C)c1nn(C2CCCCC2)c2nc(C(=O)NS(C)(=O)=O)cc(-c3ccc(N4CCC(C#N)CC4)cc3)c12` [Compound 80, 4-[4-(4-cyanopiperidin-1-yl)phenyl]-1-cyclohexyl-N-(methanesulfonyl)-3-(propan-2-yl)-1H-pyrazolo[3,4-b]pyridine-6-carboxamide], the “% Activation” value in assay [1] was determined as 457.5%; in assay [3], 258.38%. Besides, the EC50 in assay [1] is 0.389 µM; in assay [2] (setting [4]), 19.3 nM; in assay [3] it was 0.436 µM. Further, in assay [2] (setting [5]), the “% Activity at 1 μM (Ieq*)” value is given as 250%.

`CC(C)c1nn(-c2cccc(N3CCOCC3)c2)c2nc(C(=O)NS(C)(=O)=O)cc(-c3ccc(N4CCC(C#N)CC4)nc3)c12` [Compound 85, 4-[6-(4-cyanopiperidin-1-yl)pyridin-3-yl]-N-(methanesulfonyl)-1-[3-(morpholin-4-yl)phenyl]-3-(propan-2-yl)-1H-pyrazolo[3,4-b]pyridine-6-carboxamide]: the “% Activation” value in assay [1] is 570.16%; in assay [3], 426.04%. Also, the EC50 was 0.232 µM in assay [1], above 1000 nM in assay [2] (setting [4]) and 0.421 µM in assay [3]. Moreover, the “% Activity at 1 μM (Ieq*)” value in assay [2] (setting [5]) is given as 120%.

Regarding `COC1CCN(c2cc(C(=O)NS(C)(=O)=O)nc3c2c(C2CCC2)nn3-c2ccccc2)CC1` [Compound 142, 3-cyclobutyl-N-(methanesulfonyl)-4-(4-methoxypiperidin-1-yl)-1-phenyl-1H-pyrazolo[3,4-b]pyridine-6-carboxamide], the EC50 in assay [2] (setting [6]) was below 300 nM. The “% Activity at 1 μM (AUC**)” value in assay [2] (setting [7]) was determined as 250%.

Regarding `CS(=O)(=O)NC(=O)c1cc(N2CCC(N3CCOCC3)CC2)c2c(C3CCC3)nn(-c3ccccc3)c2n1` [Compound 328, 3-cyclobutyl-N-(methanesulfonyl)-4-[4-(morpholin-4-yl)piperidin-1-yl]-1-phenyl-1H-pyrazolo[3,4-b]pyridine-6-carboxamide], the concentration giving a half-maximal response (EC50) in assay [2] was determined as 96 nM.

`CN(C)S(=O)(=O)NC(=O)c1cc(OCC2CCOCC2)c2c(C3CCC3)nn(-c3ccccc3)c2n1` [Compound 334, 3-cyclobutyl-N-(dimethylsulfamoyl)-4-[(oxan-4-yl)methoxy]-1-phenyl-1H-pyrazolo[3,4-b]pyridine-6-carboxamide]: the “% Activity at 3 μM (AUC**)” value in assay [2] (setting [7]) was 345.13%. Besides, in assay [3], the “% Activation” value is reported as 121.75% and the 50% effective concentration (EC50) turned out to be 0.167 µM.

As for `COC1CCN(C2CCN(c3cc(C(=O)NS(=O)(=O)N(C)C)nc4c3c(C3CCC3)nn4-c3ccc(F)cc3)CC2)CC1` [Compound 381, 3-cyclobutyl-N-(dimethylsulfamoyl)-1-(4-fluorophenyl)-4-(4-methoxy[1,4'-bipiperidin]-1'-yl)-1H-pyrazolo[3,4-b]pyridine-6-carboxamide], the EC50 in assay [2] (setting [6]) is 4100 nM. Also, the “% Activity at 3 μM (AUC**)” value in assay [2] (setting [7]) is recorded as 441%.

Consider `CN(C)S(=O)(=O)NC(=O)c1cc(N2CCC(N3CCOCC3)CC2)c2c(C3CCC3)nn(-c3ccc(F)cc3)c2n1` [Compound 408, 3-cyclobutyl-N-(dimethylsulfamoyl)-1-(4-fluorophenyl)-4-[4-(morpholin-4-yl)piperidin-1-yl]-1H-pyrazolo[3,4-b]pyridine-6-carboxamide], for which the EC50 in assay [2] (setting [6]) was 21 nM. For the same compound, the “% Activity at 1 μM (AUC**)” value in assay [2] (setting [7]) is given as 430%.

Consider `CS(=O)(=O)NC(=O)c1cc(N2CCC(N3CCOCC3)CC2)c2c(C3CCC3)nn(-c3ccc(F)cc3)c2n1` [Compound 421, 3-cyclobutyl-1-(4-fluorophenyl)-N-(methanesulfonyl)-4-[4-(morpholin-4-yl)piperidin-1-yl]-1H-pyrazolo[3,4-b]pyridine-6-carboxamide], for which, in assay [2] (setting [6]), the half-maximal effective concentration (EC50) was found to be 45.6 nM. Also, the “% Activity at 1 μM (AUC**)” value in assay [2] (setting [7]) is given as 193.3333%.

Turning to `COCCN1CCN(c2ccc(-c3cc(C(=O)NS(=O)(=O)N(C)C)nc4c3c(C3CCC3)nn4C3CCCCC3)cn2)CC1` [Compound 552, 3-cyclobutyl-1-cyclohexyl-N-(dimethylsulfamoyl)-4-{6-[4-(2-methoxyethyl)piperazin-1-yl]pyridin-3-yl}-1H-pyrazolo[3,4-b]pyridine-6-carboxamide], in assay [1], the “% Activation” value turned out to be 364.2% and the EC50 stood at 0.13 µM. In assay [2] (setting [7]), the “% Activity at 1 μM (AUC**)” value turned out to be 235.2857%.

Consider `CC(C)Oc1nn(C2CCCCC2)c2nc(C(=O)NS(=O)(=O)N(C)C)cc(-c3ccc(N4CCN(C5CC5)CC4)cc3)c12` [Compound 559, 1-cyclohexyl-4-[4-(4-cyclopropylpiperazin-1-yl)phenyl]-N-(dimethylsulfamoyl)-3-[(propan-2-yl)oxy]-1H-pyrazolo[3,4-b]pyridine-6-carboxamide], for which, in assay [1], the “% Activation” value came to 291.03% and the EC50 is 0.154 µM. The “% Activity at 1 μM (AUC**)” value in assay [2] (setting [7]) is 231.6378%.
